Data reported in BindingDB's records for doi:10.1021/jm701199p (Eli Lilly, 2008).

The compounds below were run against T1, TGF-beta receptor type-1 [4-503,T204D] (Homo sapiens, UniProt P36897, T204D) (assay: Enzyme Assay and Luciferase Reporter Assay). Conditions: pH 7.5; 30 °C.
T1 construct: 4-503
With Cc1cccc(-c2nn3c(c2-c2ccnc4c(F)cccc24)CCC3)n1 [8-fluoro-4-[2-(6-methylpyridin-2-yl)-4H,5H,6H-pyrrolo[1,2-a]pyrazol-3-yl]quinoline] the EC50 was 951 nM. c1ccc(-c2nn3c(c2-c2cc(N4CCCC4)nc4ccccc24)CCC3)nc1 [4-[2-(pyridin-2-yl)-4H,5H,6H-pyrrolo[1,2-a]pyrazol-3-yl]-2-(pyrrolidin-1-yl)quinoline] was tested, and the EC50 was > 20000 nM. CN1CCN(CCOc2ccc3c(-c4c(-c5ccccn5)nn5c4CCC5)ccnc3c2)CC1 [7-[2-(4-methylpiperazin-1-yl)ethoxy]-4-[2-(pyridin-2-yl)-4H,5H,6H-pyrrolo[1,2-a]pyrazol-3-yl]quinoline] gave an EC50 of 38 nM. Compound ClCCOc1ccc2c(-c3c(-c4ccccn4)nn4c3CCC4)ccnc2c1 [7-(2-chloroethoxy)-4-[2-(pyridin-2-yl)-4H,5H,6H-pyrrolo[1,2-a]pyrazol-3-yl]quinoline] has an EC50 of 66 nM. Compound CN1CCN(CCCOc2ccc3c(-c4c(-c5ccccn5)nn5c4CCC5)ccnc3c2)CC1 [7-[3-(4-methylpiperazin-1-yl)propoxy]-4-[2-(pyridin-2-yl)-4H,5H,6H-pyrrolo[1,2-a]pyrazol-3-yl]quinoline] has an EC50 of 44 nM. With CN1CCN(C(=O)COc2ccc3c(-c4c(-c5ccccn5)nn5c4CCC5)ccnc3c2)CC1 [1-(4-methylpiperazin-1-yl)-2-({4-[2-(pyridin-2-yl)-4H,5H,6H-pyrrolo[1,2-a]pyrazol-3-yl]quinolin-7-yl}oxy)ethan-1-one] the EC50 was 260 nM. Work on COc1cc(OC)c2nccc(-c3c(-c4cccc(C)n4)nn4c3CCC4)c2c1 [6,8-dimethoxy-4-[2-(6-methylpyridin-2-yl)-4H,5H,6H-pyrrolo[1,2-a]pyrazol-3-yl]quinoline] yielded an EC50 of 7200 nM. CN(C)CCCCCOc1ccc2c(-c3c(-c4ccccn4)nn4c3CCC4)ccnc2c1 [dimethyl[5-({4-[2-(pyridin-2-yl)-4H,5H,6H-pyrrolo[1,2-a]pyrazol-3-yl]quinolin-7-yl}oxy)pentyl]amine] was tested, and the EC50 was 24 nM. O=C(O)c1ccc(Oc2ccc3c(-c4c(-c5ccccn5)nn5c4CCC5)ccnc3c2)cc1 [4-({4-[2-(pyridin-2-yl)-4H,5H,6H-pyrrolo[1,2-a]pyrazol-3-yl]quinolin-7-yl}oxy)benzoic acid] was tested, and the EC50 was > 20000 nM. For c1ccc(-c2nn3c(c2-c2ccnc4cc(OCC5CCCO5)ccc24)CCC3)nc1 (stereo not given) [7-(oxolan-2-ylmethoxy)-4-[2-(pyridin-2-yl)-4H,5H,6H-pyrrolo[1,2-a]pyrazol-3-yl]quinoline], the EC50 was 80 nM. Work on COC(=O)c1ccc2nccc(-c3c(-c4cccc(C)n4)nn4c3CCC4)c2c1 [methyl 4-[2-(6-methylpyridin-2-yl)-4H,5H,6H-pyrrolo[1,2-a]pyrazol-3-yl]quinoline-6-carboxylate] yielded an EC50 of 403 nM. Cc1cccc(-c2nn3c(c2-c2ccnc4ccc(OC(F)(F)F)cc24)CCC3)n1 [4-[2-(6-methylpyridin-2-yl)-4H,5H,6H-pyrrolo[1,2-a]pyrazol-3-yl]-6-(trifluoromethoxy)quinoline] was tested, and the EC50 was 201 nM. CN(C)C(=O)c1ccc(Oc2ccc3c(-c4c(-c5ccccn5)nn5c4CCC5)ccnc3c2)cc1 [N,N-dimethyl-4-({4-[2-(pyridin-2-yl)-4H,5H,6H-pyrrolo[1,2-a]pyrazol-3-yl]quinolin-7-yl}oxy)benzamide] showed an EC50 of 15000 nM. Work on CN1CCCC1CCCOc1ccc2c(-c3c(-c4ccccn4)nn4c3CCC4)ccnc2c1 (stereo not given) [7-[3-(1-methylpyrrolidin-2-yl)propoxy]-4-[2-(pyridin-2-yl)-4H,5H,6H-pyrrolo[1,2-a]pyrazol-3-yl]quinoline] yielded an EC50 of 17 nM. With Cc1cccc(-c2nn3c(c2-c2ccnc4ccc(C(=O)NCCN(C)C)cc24)CCC3)n1 [N-[2-(dimethylamino)ethyl]-4-[2-(6-methylpyridin-2-yl)-4H,5H,6H-pyrrolo[1,2-a]pyrazol-3-yl]quinoline-6-carboxamide] the EC50 was 468 nM. With CCSc1cc(-c2c(-c3ccccn3)nn3c2CCC3)c2ccccc2n1 [2-(ethylsulfanyl)-4-[2-(pyridin-2-yl)-4H,5H,6H-pyrrolo[1,2-a]pyrazol-3-yl]quinoline] the EC50 was > 20000 nM. CCN(C)CCOc1ccc2c(-c3c(-c4ccccn4)nn4c3CCC4)ccnc2c1 [ethyl(methyl)[2-({4-[2-(pyridin-2-yl)-4H,5H,6H-pyrrolo[1,2-a]pyrazol-3-yl]quinolin-7-yl}oxy)ethyl]amine] gave an EC50 of 61 nM. Compound Oc1ccc2c(-c3c(-c4ccccn4)nn4c3CCC4)ccnc2c1 [4-[2-(pyridin-2-yl)-4H,5H,6H-pyrrolo[1,2-a]pyrazol-3-yl]quinolin-7-ol] has an EC50 of 200 nM. Work on Cc1cccc(-c2nn3c(c2-c2ccnc4ccc(Br)cc24)CCC3)n1 [6-bromo-4-[2-(6-methylpyridin-2-yl)-4H,5H,6H-pyrrolo[1,2-a]pyrazol-3-yl]quinoline] yielded an EC50 of 55 nM. For Clc1cc(-c2c(-c3ccccn3)nn3c2CCC3)c2ccccc2n1 [2-chloro-4-[2-(pyridin-2-yl)-4H,5H,6H-pyrrolo[1,2-a]pyrazol-3-yl]quinoline], the EC50 was > 20000 nM.
